BindingDB's records for doi:10.1021/jm00089a012 (Merck Sharp and Dohme Research Laboratories, 1992)

Assay: In vitro for the binding affinity against sigma receptor by using [3H]DTG as radioligand in guinea pig cerebellum

Structure (SMILES)	IC50 [nM]
Clc1ccc(CN2CC[C@H]3c4ccccc4CC[C@H]3C2)cc1	4.7
c1ccc(CCN2CC[C@H]3c4ccccc4CC[C@H]3C2)cc1	0.324
c1ccc2c(c1)CC[C@H]1CN(C34C[C@H]5C[C@@H](C3)C[C@@H](C4)C5)CC[C@@H]21	2.3
c1ccc2c(c1)CC[C@H]1CN(C3CCCCC3)CC[C@@H]21	0.251
c1ccc(CCCN2CC[C@H]3c4ccccc4CC[C@H]3C2)cc1	4.3
CCCN1CC[C@H]2c3ccccc3CC[C@H]2C1	2.6
CCCCN1CC[C@@H]2c3ccccc3CC[C@H]2C1	3.1
COc1ccc(CN2CC[C@H]3c4ccccc4CC[C@H]3C2)cc1	2
c1csc(CN2CC[C@H]3c4ccccc4CC[C@H]3C2)c1	7.1
c1ccc2c(c1)CC[C@H]1CN(C3[C@H]4C[C@@H]5C[C@@H](C[C@H]3C5)C4)CC[C@@H]21 (some centres undefined)	2.2
C=CCN1CC[C@H]2c3ccccc3CC[C@H]2C1	4.6
c1ccc2c(c1)CC[C@H]1CN(Cc3ccc4ccccc4c3)CC[C@@H]21	81
c1ccc(CN2CC[C@H]3c4ccccc4CC[C@H]3C2)nc1	17
CCCCN1CCC2c3ccccc3CC2C1 (centres undefined)	11
CCCCN1CC[C@H]2c3ccccc3CC[C@H]2C1	6.3
CCCCN1CCC2c3ccccc3CCCC2C1 (centres undefined)	2.1
CN1CC[C@@H]2c3ccccc3CC[C@H]2C1	447
CCCCN1CC[C@H]2c3cc(C)cc(C)c3CC[C@H]2C1	2
c1coc(CN2CC[C@H]3c4ccccc4CC[C@H]3C2)c1	6.6
c1ccc2c(c1)CC[C@H]1CN(CC3CC3)CC[C@@H]21	2.5
O=[N+]([O-])c1ccc(CN2CC[C@H]3c4ccccc4CC[C@H]3C2)cc1	8.7
CCCCN1CCC2=C(Cc3ccccc32)C1	1.9
CCCN1CCC2=C(CCc3ccccc32)C1	21
CN1CC[C@H]2c3ccccc3CC[C@H]2C1	339
